Patent US9220814B2, “Broad-spectrum antimicrobial compositions based on combinations of taurolidine and protamine and medical devices containing such compositions” (Ethicon, Inc., priority 2011, dated 2015)

How the values were obtained:
S. aureus ACTT 6538 = assay: bactericidal two-dimensional concentration matrix of TU and PS in SST medium, plate count; format: cell-based, Staphylococcus aureus; conditions: TU alone at 100 ppm, 37° C. 24 hours
Method: Concentration gradients of TU and PS were diluted in an SST medium and made into a two-dimensional matrix. Bacteria of interest were inoculated to the matrix at about 10e6 CFU/ml. S. aureus ACTT 6538 or E. coli ATCC 25922 were used for this Example 2. After incubation at 37° C. for 24 hours, viable bacteria populations were measured by plate count. Log reduction (LR) was used as the end point for efficacy and was defined as: Log CFU/ml of untreated control−Log CFU/ml of treated. Synergistic index (SI) was defined as LR of a given combination−sum of LR of single component at the same concentration as in the combination. SI=0 indicated additive effect, SI=1, indicated 90% more bacterial cedality, SI=2 indicated 99% more bacterial cedality, SI=3, indicated 99.9% more bacterial cedality, etc., by combination than its stand alone compositions at the same usage, thus synergy.

[1] = cited from earlier work
[2] = tested on: Escherichia coli ATCC 25922; assay: in vitro bacteria attachment assay on coated mesh discs in SST medium; format: cell-based; conditions: treated mesh surface, serum containing media
Method: Taurolidine was dissolved at 4% wt./vol. in a 70% acetone 30% water vol./vol. mixture. Protamine sulfate was dissolved at 10% wt./vol. in water under warming. 50 μl of the taurolidine (TU) solution and 20 μl of the protamine (PS) solution were applied to each mesh disk using a pipette and allowed to dry at 50° C. until the majority of the liquid was gone and then stored under vacuum. First the taurolidine solution was applied, and then immediately thereafter the protamine sulfate solution was applied. The in vitro bacteria attachment assay was developed for its utility of indicating biofilm prevention potential of prototype mesh. Since bacterial attachment to a surface is the first step of biofilm formation, a surface treatment that inhibits bacterial attachment would reduce the chance of subsequent biofilm formation. The assay was conducted in SST (Serum Saline TSB) medium to mimic in vivo and clinical conditions. The formulation of SST is Tryptic Soy Broth (TSB):serum:saline in the ratio of 1:2:7. Each test article was incubated in SST inoculated with Staphylococcus aureus ACTT 6538 or Escherichia coli ATCC 25922 at about 6 Log CFU/ml. […] Viable bacteria populations were measured by plate count on TSA (Tryptic Soy agar) medium contain neutralizing agents. […]

[3] = tested on: Staphylococcus aureus ACTT 6538; assay: as above; format: cell-based; conditions: for Log reduction: 4 hours SST 37° C.
Method: Taurolidine was dissolved at 4% wt./vol. in a 70% acetone 30% water vol./vol. mixture. Protamine sulfate was dissolved at 10% wt./vol. in water under warming. 50 μl of the taurolidine (TU) solution and 20 μl of the protamine (PS) solution were applied to each mesh disk using a pipette and allowed to dry at 50° C. until the majority of the liquid was gone and then stored under vacuum. First the taurolidine solution was applied, and then immediately thereafter the protamine sulfate solution was applied. The in vitro bacteria attachment assay was developed for its utility of indicating biofilm prevention potential of prototype mesh. Since bacterial attachment to a surface is the first step of biofilm formation, a surface treatment that inhibits bacterial attachment would reduce the chance of subsequent biofilm formation. The assay was conducted in SST (Serum Saline TSB) medium to mimic in vivo and clinical conditions. The formulation of SST is Tryptic Soy Broth (TSB):serum:saline in the ratio of 1:2:7. Each test article was incubated in SST inoculated with Staphylococcus aureus ACTT 6538 or Escherichia coli ATCC 25922 at about 6 Log CFU/ml. After incubation with rotation of 60 rpm for 4 hours at 37° C., the mesh discs were washed in saline 3 times to remove unattached bacteria. Bacteria attached to the mesh were collected by sonication in saline with neutralizing agent. Viable bacteria populations were measured by plate count on TSA (Tryptic Soy agar) medium contain neutralizing agents. The use of neutralizing agents in bacteria suspension and plate count medium was to eliminate any carry over antimicrobial effect from the coating. The plates were incubated at 37° C. for 24 hours. The number of attached viable bacteria was reported as CFU/disc. In accordance with Example 1, surgical mesh discs coated with different stand alone and combinations of taurolidine+protamine sulfate were prepared. Protocols of mesh coating and in vitro attachment assay as in Example 1 were used for this Example 3.

[4] = tested on: Staphylococcus aureus ACTT 6538; assay: in vitro MBC (minimum bactericidal concentration) study of PS:TU ratios in SST medium; format: cell-based
Method: The range of the ratios of the components of the synergistic antimicrobial compositions of the present invention was obtained by an in vitro MBC (minimum bactericidal concentration) study. The study was conducted in SST medium inoculated with about 10^6 CFU/ml Staphylococcus aureus ACTT 6538. In vitro efficacy was evaluated for different ratios of PS and TU combinations along with the stand alone (i.e., individual) compositions at the same concentrations as in the combination composition. After incubation at 37° C. for 24 hours, viable bacteria populations were measured by plate count. Log reduction (LR) was used as the end point for efficacy and was defined as Log CFU/ml of untreated control−Log CFU/ml of treated. The synergistic index (SI) was defined as the LR of a given combination−sum of LR of single component at the same concentration as in the combination. An SI=0 indicated additive effect, SI=1, indicated 90% more bacterial cedality, SI=2 indicated 99% more bacterial cedality, SI=3, indicated 99.9% more bacterial cedality, etc., by a combination than its stand alone components at the same usage, thus synergy.

For O=S1(=O)CCN(CN2CCS(=O)(=O)NC2)CN1 [TU, bis(1,1-dioxoperhydro-1,2,4-thiadiazinyl-4)-methane], the “Log reduction (LR)” value (S. aureus ACTT 6538) is listed as 0, the “safe and well tolerated cumulative dose” value ([1]; cumulative doses) is listed as “exceeding 300 g” and the “safe and well tolerated systemic dose” value ([1]; systemic doses) is listed as “exceeding 40 g/day”. The “inhibition of attachment by E. coli (in words)” value [2] was “less inhibition than the combination”, the Log reduction ([3]; TU 500 μg/disc alone) was 1 and the Log reduction ([3]; TU 1000 μg/disc alone) was 0.8. The Log reduction ([3]; TU 2000 μg/disc alone) was 2, the “inhibition of attachment by S. aureus (in words)” value ([3]; treated mesh surface, serum containing media) was “less inhibition than the combination” and the LR-TU ([4]; TU alone at same concentration as in PS:TU 1:1) was 0. It also gave an LR-TU ([4]; TU alone at same concentration as in PS:TU 1:10) of 0, an LR-TU ([4]; TU alone at same concentration as in PS:TU 1:50) of 0 and an LR-TU ([4]; TU alone at same concentration as in PS:TU 1:100) of 0. The LR-TU ([4]; TU alone at same concentration as in PS:TU 1:200) was 0, the LR-TU ([4]; TU alone at same concentration as in PS:TU 10:1) was 0 and the LR-TU ([4]; TU alone at same concentration as in PS:TU 50:1) was 0.
